Measurements as given in US20260070902A1, “SULFONYL DERIVATIVES AS CCR6 INHIBITORS” (Hoffmann-La Roche Inc., priority 2022, published 2026).

biological target: T1, human CCR6 (Homo sapiens, UniProt P51684); assay: Human CCR6-CRE reporter assay; type: cell-based; design: The second construct contained the open reading frame of human CCR6 in the pUNO1 backbone; host or cells: 293FT cells; details: relative -Log IC50; 293FT cells transfected with human CCR6 and CRE-luciferase reporter; 6 μM Forskolin, 6 nM CCL20; 5 h
T1 sequence (P51684 1-374): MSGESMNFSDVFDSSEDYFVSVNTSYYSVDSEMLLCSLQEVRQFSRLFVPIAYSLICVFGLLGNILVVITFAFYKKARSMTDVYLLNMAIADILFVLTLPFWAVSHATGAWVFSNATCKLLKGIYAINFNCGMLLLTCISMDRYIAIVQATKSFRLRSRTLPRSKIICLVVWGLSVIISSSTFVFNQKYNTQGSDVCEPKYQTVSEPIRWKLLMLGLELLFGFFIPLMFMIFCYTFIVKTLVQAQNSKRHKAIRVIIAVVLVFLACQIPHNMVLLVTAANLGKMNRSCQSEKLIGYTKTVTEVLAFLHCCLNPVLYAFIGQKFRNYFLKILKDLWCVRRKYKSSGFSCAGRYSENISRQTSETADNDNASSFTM
Experimental: Human CCR6-CRE Reporter Assay
293FT cells were transfected with 2 constructs using TransIT-293 (Mirus). The first construct (pGL4.29, Promega) expressed the luciferase reporter gene luc2P in response to the binding of cAMP-induced CREB to the CREelement in its promoter. The second construct contained the open reading frame of human CCR6 in the pUNO1 backbone under the control of an enhanced CMV promoter (InVivoGen). 48 h after transfection, cells were harvested and diluted to 750,000 cells/ml in culture medium (DMEM, 10% FBS, 1× pen/strep (Gibco 15140)). Compounds were 2.5-fold serially diluted in DMSO. Further dilutions were made in assay medium (DMEM, 10% FBS, 1× pen/strep, 6 μM Forskolin, 6 nM CCL20). 4 μl of the compound solution was added to a white MW384 plate, followed by 20 μl of the cell suspension. Final DMSO concentration in the assay was 0.1%. The MW384 plate was placed in an incubator at 37° C., 5% CO2 for 5 h. Luciferase activity was determined by addition of 24 μl of a 2.5× diluted BriteLite luciferase solution (Perkin Elmer), followed by luminescence measurement using a VICTOR Plate reader (Perkin Elmer). […] The relative −Log IC50 was determined with GraphPad Prism 9 using a four-parameter dose-response model.

IC50 [nM]	Structure (SMILES)
1580	CNC(=O)c1ccc(-c2ccc(S(=N)(=O)[C@H]3CC[C@H](Nc4ccc(S(F)(F)(F)(F)F)cc4)CC3)cc2)nc1 (stereo partly drawn) [Example 107, N-methyl-6-(4-{[trans-4-{[4-(pentafluoro-λ^6-sulfanyl)phenyl]Amino}cyclohexyl]sulfonimidoyl}phenyl)pyridine-3-carboxamide]
1580	CN(C)C(=O)c1ccc(-c2ccc(S(=N)(=O)[C@H]3CC[C@H](Nc4ccc(S(F)(F)(F)(F)F)cc4)CC3)cc2)nc1 (stereo partly drawn) [Example 106, N,N-dimethyl-6-(4-{[trans-4-{[4-(pentafluoro-λ^6-sulfanyl)phenyl]Amino}cyclohexyl]sulfonimidoyl}phenyl)pyridine-3-carboxamide]
1260	Cc1cnc2ccc(-c3ccc(S(=O)(=O)N4CCC(Nc5ccc(S(F)(F)(F)(F)F)cc5)CC4)nc3)cn12 [Example 70, 1-[(5-{3-methylimidazo[1,2-a]pyridin-6-yl}pyridin-2-yl)sulfonyl]-N-[4-(pentafluoro-λ^6-sulfanyl)phenyl]piperidin-4-amine]
398	N=S(=O)(c1ccc(-c2ccc3c(c2)C(=O)NC3)cc1)[C@H]1CC[C@H](Nc2ccc(S(F)(F)(F)(F)F)cc2)CC1 (stereo partly drawn) [Example 115, 6-(4-{[trans-4-{[4-(pentafluoro-λ^6-sulfanyl)phenyl]Amino}cyclohexyl]sulfonimidoyl}phenyl)-2,3-dihydro-1H-isoindol-1-one]
25.1	Cc1cc(-c2ccc(S(=O)(=O)[C@H]3CC[C@H](Nc4ccc(S(F)(F)(F)(F)F)cn4)CC3)cc2)cn2c(C(C)C)nnc12 [Example 181, 5-(pentafluoro-λ^6-sulfanyl)-N-[trans-4-{4-[8-methyl-3-(propan-2-yl)-[1,2,4]triazolo[4,3-a]pyridin-6-yl]benzenesulfonyl}cyclohexyl]pyridin-2-amine]
501	N=S(=O)(c1ccc(-c2ccc(C(N)=O)nc2)cc1)[C@H]1CC[C@H](Nc2ccc(S(F)(F)(F)(F)F)cc2)CC1 (stereo partly drawn) [Example 108, 5-(4-{[trans-4-{[4-(pentafluoro-λ^6-sulfanyl)phenyl]Amino}cyclohexyl]sulfonimidoyl}phenyl)pyridine-2-carboxamide]
1580	N#Cc1cnc2ccc(-c3ccc(S(=O)(=O)N4CCC(Nc5ccc(S(F)(F)(F)(F)F)cc5)CC4)nc3)cn12 [Example 78, 6-{6-[(4-{[4-(pentafluoro-λ^6-sulfanyl)phenyl]Amino}piperidin-1-yl)sulfonyl]pyridin-3-yl}imidazo[1,2-a]pyridine-3-carbonitrile]
50.1	Cc1cc(-c2ccc(S(=O)(=O)[C@H]3CC[C@H](Nc4ccc(S(F)(F)(F)(F)F)cc4)CC3)cc2)cn2c(C(C)C)cnc12 [Example 64, 4-(pentafluoro-λ^6-sulfanyl)-N-[trans-4-{4-[8-methyl-3-(propan-2-yl)imidazo[1,2-a]pyridin-6-yl]benzenesulfonyl}cyclohexyl]aniline]
1000	Cc1cnc2ccc(-c3ccc(S(=O)(=O)N4CCC(Nc5ccc(S(F)(F)(F)(F)F)cc5)CC4)cc3F)cn12 [Example 68, 1-(3-fluoro-4-{3-methylimidazo[1,2-a]pyridin-6-yl}benzenesulfonyl)-N-[4-(pentafluoro-λ^6-sulfanyl)phenyl]piperidin-4-amine]
794	CN(C)C(=O)c1ccc(-c2ccc(S(=N)(=O)[C@H]3CC[C@H](Nc4ccc(S(F)(F)(F)(F)F)cc4)CC3)cc2)cn1 (stereo partly drawn) [Example 100, N,N-dimethyl-5-(4-{[trans-4-{[4-(pentafluoro-λ^6-sulfanyl)phenyl]Amino}cyclohexyl]sulfonimidoyl}phenyl)pyridine-2-carboxamide]
501	Cc1n[nH]c2ccc(-c3ccc(S(=O)(=O)[C@H]4CC[C@@H](Nc5ccc(S(F)(F)(F)(F)F)cc5)CC4)cc3)cc12 [Example 5, 4-(pentafluoro-λ^6-sulfanyl)-N-[cis-4-[4-(3-methyl-2H-indazol-5-yl)benzenesulfonyl]cyclohexyl]aniline]
398	N=S(=O)(c1ccc(-c2ccc3c(c2)C(=O)NCC3)cc1)[C@H]1CC[C@H](Nc2ccc(S(F)(F)(F)(F)F)cc2)CC1 (stereo partly drawn) [Example 114, 7-(4-{[trans-4-{[4-(pentafluoro-λ^6-sulfanyl)phenyl]Amino}cyclohexyl]sulfonimidoyl}phenyl)-1,2,3,4-tetrahydroisoquinolin-1-one]
39.8	O=C1Nc2ccc(-c3ccc(S(=O)(=O)[C@H]4CC[C@H](Nc5ccc(S(F)(F)(F)(F)F)cc5)CC4)cc3)cc2C12CC2 [Example 65, 5′-(4-{[trans-4-{[4-(pentafluoro-λ^6-sulfanyl)phenyl]amino}cyclohexyl]sulfonyl}phenyl)-1′,2′-dihydrospiro[cyclopropane-1,3′-indol]-2′-one]
1580	O=S(=O)(c1ccc(-c2ccc3nccn3c2)cc1Cl)N1CCC(Nc2ccc(S(F)(F)(F)(F)F)cc2)CC1 [Example 79, 1-(2-chloro-4-{imidazo[1,2-a]pyridin-6-yl}benzenesulfonyl)-N-[4-(pentafluoro-λ^6-sulfanyl)phenyl]piperidin-4-amine]
794	N=S(=O)(c1ccc(-c2ccc3nccn3c2)cc1)[C@H]1CC[C@@H](Nc2ccc(S(F)(F)(F)(F)F)cc2)CC1 (stereo partly drawn) [Example 88, (4-{imidazo[1,2-a]pyridin-6-yl}phenyl)[cis-4-{[4-(pentafluoro-λ^6-sulfanyl)phenyl]Amino}cyclohexyl](imino)-λ^6-sulfanone]
316	N=S(=O)(c1ccc(-c2ccc3n[nH]c(=O)n3c2)cc1)[C@H]1CC[C@H](Nc2ccc(S(F)(F)(F)(F)F)cc2)CC1 (stereo partly drawn) [Example 119, 6-(4-{[trans-4-{[4-(pentafluoro-λ^6-sulfanyl)phenyl]Amino}cyclohexyl]sulfonimidoyl}phenyl)-2H,3H-[1,2,4]triazolo[4,3-a]pyridin-3-one]
398	N=S(=O)(c1ccc(-c2ccn3ccnc3c2)cc1)[C@H]1CC[C@H](Nc2ccc(S(F)(F)(F)(F)F)cc2)CC1 (stereo partly drawn) [Example 93, (4-{imidazo[1,2-a]pyridin-7-yl}phenyl)[trans-4-{[4-(pentafluoro-λ^6-sulfanyl)phenyl]Amino}cyclohexyl](imino)-λ^6-sulfanone]
794	O=S(=O)(c1ccc(-c2ccc3nnc([C@@H]4CCNC4)n3c2)cc1)N1CCC(Nc2ccc(S(F)(F)(F)(F)F)cc2)CC1 [Example 165, N-[4-(pentafluoro-λ^6-sulfanyl)phenyl]-1-(4-{3-[(3R)-pyrrolidin-3-yl]-[1,2,4]triazolo[4,3-a]pyridin-6-yl}benzenesulfonyl)piperidin-4-amine]
631	Cc1cnc2ccc(-c3ccc(S(=O)(=O)N4CCC(Nc5ccc(S(F)(F)(F)(F)F)cc5)CC4)c(F)c3)cn12 [Example 67, 1-(2-fluoro-4-{3-methylimidazo[1,2-a]pyridin-6-yl}benzenesulfonyl)-N-[4-(pentafluoro-λ^6-sulfanyl)phenyl]piperidin-4-amine]
251	N=S(=O)(c1ccc(-c2ccc3c(c2)NC(=O)C3)cc1)[C@H]1CC[C@H](Nc2ccc(S(F)(F)(F)(F)F)cc2)CC1 (stereo partly drawn) [Example 117, 6-(4-{[trans-4-{[4-(pentafluoro-λ^6-sulfanyl)phenyl]Amino}cyclohexyl]sulfonimidoyl}phenyl)-2,3-dihydro-1H-indol-2-one]
